From EP0741709B1, “AROMATIC 2-AMINO-IMIDAZOLE DERIVATIVES AS ALPHA-2A ADRENOCEPTOR AGONISTS” (Allergan Sales, Inc., priority 1994, dated 1995) come the findings set out here.

In general, Ki refers to a dissociation constant, usually derived from enzyme kinetics or from competition with a known ligand. Low readings indicate a stronger hold on the target, high ones a looser hold on the target.

This assay concerns the target T1, human α2A (Homo sapiens, UniProt P08913).
T1 construct: expressed in transfected cells; host or cells: CHO (CHO-C10)
T1 sequence (P08913 1-465): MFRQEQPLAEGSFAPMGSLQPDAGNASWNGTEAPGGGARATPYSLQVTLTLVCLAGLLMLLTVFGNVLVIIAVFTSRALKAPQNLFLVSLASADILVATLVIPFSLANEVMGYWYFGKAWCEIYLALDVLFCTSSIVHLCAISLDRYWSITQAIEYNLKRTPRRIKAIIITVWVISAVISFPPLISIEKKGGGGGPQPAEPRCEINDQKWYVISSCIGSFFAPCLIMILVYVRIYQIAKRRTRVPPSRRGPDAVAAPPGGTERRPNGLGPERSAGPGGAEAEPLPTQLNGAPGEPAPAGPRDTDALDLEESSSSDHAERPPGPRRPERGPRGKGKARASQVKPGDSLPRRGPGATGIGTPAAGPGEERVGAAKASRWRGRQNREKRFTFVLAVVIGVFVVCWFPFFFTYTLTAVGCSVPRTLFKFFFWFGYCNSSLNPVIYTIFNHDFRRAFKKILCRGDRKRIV
Kind of assay: Receptor binding assay, [3H]rauwolscine, CHO-C10 cell membranes. The note with it: 22°C, 30 minutes. The method, then: Cell preparation: […] Cells were harvested by scraping and placed into cold buffer of the following composition: 50 mM Tris-HCl, 5 mM EDTA, pH 7.4). Cells were then homogenized with a Polytron homogenizer for 2 X 10 sec at setting #7, and centrifuged for 20 minutes at 49,000 x g. The pellet fraction was washed (resuspended in Tris-HCl, pH 8 buffer and centrifuged for 15-20 minutes at 49,000 x g) 2 times and stored at -100°C until binding assay. Binding Studies: […] Frozen membrane pellet was resuspended in 25 mM glycine/glycine, pH 7.5 and incubated with radioligand under the following conditions: […] RKC-[^3H]rauwolscine, 0°C, 120 minutes; and, HCC-[^3H]prazosin, 22°C, 30 minutes in a final volume of 500 ul. At the end of the incubation period, the samples were filtered through glass filters (Whatman GF/B) in a 96 well cell harvester and rapidly washed four times with 4 mL of iced-cold 50 mM Tris-HCl buffer. The filters were then oven dried and transferred to scintillation vials containing 10 mL of Beckman's Ready Protein® scintillation cocktail for counting. […] Protein concentrations were determined with a protein assay kit from Bio Rad. Binding isotherms, equilibrium dissociation and affinity constants were analyzed and determined by the non-linear least squares curve fitting programs EBDA (BioSoft) or AccuFit Competition/Saturation by Beckman. Cell preparation: […] Cells were harvested by scraping and placed into cold buffer of the following composition: 50 mM Tris-HCl, 5 mM EDTA, pH 7.4). Cells were then homogenized with a Polytron homogenizer for 2 X 10 sec at setting #7, and centrifuged for 20 minutes at 49,000 x g. The pellet fraction was washed (resuspended in Tris-HCl, pH 8 buffer and centrifuged for 15-20 minutes at 49,000 x g) 2 times and stored at -100°C until binding assay. […] Frozen membrane pellet was resuspended in 25 mM glycine/glycine, pH 7.4 and incubated with radioligand under the following conditions: […] At the end of the incubation period, the samples were filtered through glass fiber filters (Whatman GF/B) in a 96 well cell harvester and rapidly washed four times with 4 mL of iced-cold 50 mM Tris-CHl buffer. The filters were then oven dried and transferred to scintillation vials containing 5 mL of Beckman's Ready Protein® scintillation cocktail for counting. […] Protein concentrations were determined with a protein assay kit from Bio Rad. Binding isotherms, equilibrium dissociation and affinity constants were analyzed and determined by the non-linear least squares curve fitting programs AccuFit Competition/Saturation by Beckman.
For `c1ccc(Nc2ncc[nH]2)cc1`, the Ki was determined as 394 nM. This counts as sub-micromolar.

Take `Clc1ccccc1Nc1ncc[nH]1`: the Ki is 287 nM.

Turning to `Brc1ccccc1Nc1ncc[nH]1`, affinity was put at a Ki of 214 nM.

Compound `Clc1cccc(Cl)c1Nc1ncc[nH]1` gave a Ki of 95 nM.

In turn, `Cc1ccccc1Nc1ncc[nH]1` had a Ki of 73 nM.

Compound `Brc1c(Nc2ncc[nH]2)ccc2nccnc12` yielded a Ki of 512 nM.

`Cc1c(Nc2ncc[nH]2)ccc2nccnc12`: the Ki turned out to be 31 nM.

As for `Cc1c(Nc2ncc[nH]2)ccc2c1OCCO2`, the affinity, expressed as Ki, was 1.7 nM.

Compound `c1cc2c(c(Nc3ncc[nH]3)c1)CCCC2` gave a Ki of 39 nM.

In turn, `Cc1c(Nc2ncc[nH]2)ccc2c1NCCO2` came in with an inhibition constant Ki of 6.3 nM.

Compound `COc1ccc(Nc2ncc[nH]2)c(C)c1` registered a Ki of 10 nM.
